For data set [1], the system named is Penicillium. Description: MIC, macro broth dilution technique (NCCLS) on patient fungal isolates. It counts as cell-based. Particulars: 48 hour MIC reading; isolates from rhinosinusitis patients; one isolate per table line. The procedure:
(§1) The following procedure was used to determine effective antifungal agents as well as effective concentrations of antifungal agents such that the fungal organisms isolated from patients can be prevented from growing or killed.
(§2) Seventeen fungal isolates were collected from eight rhinosinusitis patients and tested for susceptibility against amphotericin B, ketoconazole, and itraconazole. Each antifungal agent was tested on these fungal isolates using the macro broth dilution technique according to the National Committee on Clinical Laboratory Standards (NCCLS) protocol. […] The results from this procedure provided an estimate of the efficacy of antifungal agents against specific fungal isolates in vitro.

The subject of data set [2] is non-invasive fungus-induced rhinosinusitis patients. Nature of the data set: Itraconazole nasal irrigations in rhinosinusitis patients (Example 7). It counts as in vivo, human. The method, then: Three non-invasive fungus-induced rhinosinusitis patients (person, person, and person) were instructed to perform nasal irrigation with an itraconazole solution. The itraconazole solution contained about 100 mg of itraconazole per L of solution (10% PEG-400 in sterile water) and was prepared as described herein. […] Each patient reported marked improvement in symptoms within two weeks of starting the itraconazole irrigations (symptom scores: −1 to +2 and −1 to +1).
After treatment with itraconazole, that patient reported symptom improvement (symptom score: from −1 to 0).

Data set [3] relates to chronic asthma patient. Description: Itraconazole nasal irrigations in an asthma patient, symptoms and pulmonary function (Example 8). It counts as in vivo, human. The procedure:
Sputum and nasal-paranasal mucus samples were collected and analyzed.
The concentration of the itraconazole solution was about 100 mg per liter. After a few weeks, the patient took their last course of systemic steroids. About two months after stopping the systemic steroids, the patient also stopped using the topical steroids as well as the bronchodilator.

Data set [4] is described as follows: Oral itraconazole capsule, fraction remaining in the bowel lumen (Example 10). It counts as in vivo, human. Particulars: 100 mg capsule before bedtime, at least two hours after last meal, without cola. The source says:
Three out of five consecutive patients with chronic rhinosinusitis reported having a history of colitis. […] Each patient was instructed to take the capsule before bedtime a minimum of two hours after their last meal and without any cola. Food and cola beverages increase absorption of the drug.

In data set [5] the test system is Geotrichum. Description: MIC, macro broth dilution technique (NCCLS) on patient fungal isolates. It is filed as cell-based. To be noted: 48 hour MIC reading; isolate from rhinosinusitis patient. The procedure: as §1, §2
Data set [6] deals with Trichoderma. Described as above. It counts as cell-based. Particulars: 48 hour MIC reading; isolate from rhinosinusitis patient. The procedure:
as §1, §2

For data set [7], the system named is non-invasive fungus-induced rhinosinusitis patients. Description: Amphotericin B nasal irrigation study, three month follow-up (Example 2). It counts as in vivo, human. The source says: In addition to patient interviewing, CT scan analysis, visual examination, and fungal culture analysis, two types of evaluations were used to score the success of the treatment: an endoscopic evaluation and a patient symptom evaluation. These evaluations were scored as follows:
(§3) Stage 0: no evidence of disease
(§4) Stage 1: polypoid changes/polyps seen by endoscopy only
(§5) Stage 2: polyps in the middle meatus
(§6) Stage 3: polyps filling the nasal cavity
(§7) Patient Symptom Evaluation
(§8) Stage −2: very bad/much worse
(§9) Stage 0: baseline/no change
(§10) Stage 2: very good/free of symptoms

The test system of data set [8] is fungal organisms within their mucus. Nature of the data set: Examination of mucus samples of non-responding patients for resistance. It counts as cell-based. To be noted: five of the nine non-responding patients with available samples, all five. The source says:
Eleven of the 53 patients went from endoscopic evaluation stage 2 or 3 to stage 1 after three months. […] Five of the nine non-responding patients had previously collected mucus samples that were available for examination.

Data set [9] deals with rhinosinusitis patient. Description: Single patient study, one-sided then two-sided amphotericin B irrigation, RAST assay to Alternaria. It counts as in vivo, human.
Experimental: Only the left nasal-paranasal side, however, received surgery as well as intra-operative and post-operative treatment with about 20 mL of an amphotericin B solution (100 mg/L) two to four times daily.
In data set [10] the test system is non-invasive fungus-induced rhinosinusitis patients. Nature of the data set: Patients returning during a one week period on amphotericin B nasal irrigations (Table II). It counts as in vivo, human. To be noted: A = after antifungal treatment, one patient per line. Set-up: key to Endoscopy Score A: endoscopy stage 0 = no disease to 3 = polyps filling nasal cavity.
Excerpt: as §3, §4, §5, §6, §7, §8, §9, §10
Only previously seen patients that were instructed to use the antifungal amphotericin B nasal irrigations were entered into this study.
During a one week period, twenty patients returned to the physician's office (Table II). The average age of the returning patients was 47 years (range 16-74 years). The patients were using the amphotericin B irrigations for an average duration of about six months (range 1-16 months). […] In addition, some patients were using topical and systemic steroid therapy. Further, some patients were using an antibiotic nasal irrigation in addition to the antifungal irrigations. The antibacterial solution contained 80 mg gentamicin per L saline (Wilson's solution). Some patients mixed the antibacterial solution with the antifungal solution and then performed the nasal irrigations while others used each solution separately in a sequential manner. Some patients also had other diseases including asthma (15 of the 20 patients) and colitis (2 of the 20 patients).

Data set [11] shares this test system. Nature of the data set: Amphotericin B irrigations in patients without previous nasal surgery (Example 3). It is filed as in vivo, human. Particulars: patient; for symptom score after treatment: score −1 before. The source says:
A person was diagnosed with non-invasive fungus-induced rhinosinusitis and instructed to perform amphotericin B irrigations twice a day.
A person was diagnosed with non-invasive fungus-induced rhinosinusitis and instructed to perform amphotericin B irrigations twice a day, which was later increased to four times a day.
A person was diagnosed with non-invasive fungus-induced rhinosinusitis and instructed to perform amphotericin B irrigations twice a day. This patient had been given intramuscular steroid shots every 3 to 8 months with the last shot being administered about seven months prior to starting the amphotericin B irrigations.

Data set [12] concerns non-invasive fungus-induced rhinosinusitis patient. Nature of the data set: Eosinophil count in mucosal biopsies after antifungal treatment (Example 4). It counts as in vivo, human. Particulars: person.
Data set [13] concerns patients with previously diagnosed chronic asthma. Description: Chronic asthma symptoms in patients of the Example 2 study (Example 5). It counts as in vivo, human.
Excerpt: One hundred and thirty-two consecutive rhinosinusitis patients were entered into a study to evaluate the use of an antifungal agent to treat non-invasive fungus-induced rhinosinusitis. After diagnostic analysis, 125 of the 132 patients (95%) had the following criteria: (1) presence of observable disease within the nasal-paranasal anatomy as evidenced by a CT scan, (2) presence of allergic mucus as evidenced by histologic evaluation of a surgical specimen, and (3) presence of fungal organisms within nasal-paranasal mucus as evidenced by the ability to culture fungal organisms from a mucus sample. The 125 non-invasive fungus-induced rhinosinusitis patients were started on an antifungal treatment of about 20 mL of an amphotericin B solution per nostril; two to four times daily for at least three months. The concentration of the amphotericin B solution was about 100 mg per liter of saline or water. A 20 mL bulb was used by the patient to mucoadminister the amphotericin B solution into the patient's nasal-paranasal anatomy. Data were compiled for 53 of the patients who had returned for their three month follow-up analysis.
Data set [14] deals with Cladosporium. Nature of the data set: MIC, macro broth dilution technique (NCCLS) on patient fungal isolates. It is filed as cell-based. To be noted: 48 hour MIC reading; isolates from rhinosinusitis patients; one isolate per table line. The method, then: as §1, §2
The mark [15] stands for this setting: sixteen days after starting itraconazole irrigations, score 1 before.
The mark [16] stands for this setting: after seven months versus before treatment.
Where [17] appears, read: after three months, about 20 mL of 100 mg/L solution per nostril two to four times daily.
Setting [18] is: after treatment, three month follow-up.

≈ marks a conversion by molar mass, not a printed value. Where “and” joins values, the source holds several entries; their conditions need not be identical. Equal entries are not always repeated.

Here are results for three molecules from patent US20030091510A1, “METHODS FOR TREATING AND PREVENTING ASTHMA AND NON-INVASIVE FUNGUS-INDUCED RHINOSINUSITIS” (priority 1997, published 2003).

As to `CCC(C)n1ncn(-c2ccc(N3CCN(c4ccc(OCC5COC(Cn6cncn6)(c6ccc(Cl)cc6Cl)O5)cc4)CC3)cc2)c1=O` (stereo not drawn) [Itraconazole, itraconazole], the MIC in [1] is 0.25 µg/mL (≈ 0.354 µM). Further, in [2] (setting [15]), the “endoscopic score, left side” value was 1 and the “endoscopic score, right side” value was found to be 0. Moreover, in data set [2] (third patient, itraconazole irrigations), the “adverse local reaction to nasal irrigations” value is reported as “did not have any adverse local reaction”. For the same molecule, the “symptom score after itraconazole irrigations” value in [2] (third patient, switched because of adverse reaction to amphotericin B, score −1 before) is 0. In addition, the “forced expiratory volume in 1 second (FEV1) after treatment” value in data set [3] (after seven months of irrigations, 3.34 liter before treatment) was 4.27 L. The “forced vital capacity (FVC) after treatment” value in [3] (after seven months of irrigations, 3.99 liter before treatment) was 4.80 L. The “maximal forced expiratory flow (FEFmax) after treatment” value in [3] (after seven months of irrigations, 9.1 liter per second before treatment) is on record as 12.6 liter per second. Further, the “maximum voluntary ventilation (MVV) after treatment” value in data set [3] (after seven months of irrigations, 119 liter per minute before treatment) is 156 liter per minute. Besides, in data set [3] (setting [16]), the “improvement of MVV” value was 31.90%, the “increase of FEFmax” value came out at 38.46%, the “increase of FEV1” value is recorded as 27.84% and the “increase of FVC” value is recorded as 20.30%. Besides, the “itraconazole that should remain in the bowel lumen” value in data set [4] is “about 50%”.
For the molecule `C[C@@H]1[C@H](O)[C@@H](C)/C=C/C=C/C=C/C=C/C=C/C=C/C=C/[C@H](O[C@@H]2O[C@H](C)[C@@H](O)[C@H](N)[C@@H]2O)C[C@@H]2O[C@](O)(C[C@@H](O)C[C@@H](O)[C@H](O)CC[C@@H](O)C[C@@H](O)CC(=O)O[C@H]1C)C[C@H](O)[C@H]2C(=O)O` [Amphotericin B, amphotericin B], the MIC came out at 0.1 µg/mL (≈ 0.108 µM) in data set [5] and 4 µg/mL (≈ 4.33 µM) in data set [6]. Besides, the “CT scan finding, patient with bilateral rhinosinusitis” value in data set [7] (after four months, 20 mL of 100 mg/L solution per nostril two times daily, no recent surgery, no steroids, FIG. 1 and 2) is “complete disappearance of opacity and symptoms characteristic of rhinosinusitis”. Besides, the “number of the 33 stage 0 cases confirmed by CT scans” value in [7] (after three months) is on record as “Six”. For the same molecule, the “number of the 53 patients that went from endoscopic evaluation stage 2 or 3 to stage 0 (no evidence of disease)” value in [7] (setting [17]) was found to be 33. Further, in data set [7] (setting [17]), the “number of the 53 patients that went from endoscopic evaluation stage 2 or 3 to stage 1” value was “Eleven”. Besides, in data set [7] (after three months, endoscopic evaluation), the “number of the 53 patients that did not respond to the treatment” value was “nine”. Also, the “number of the 53 patients giving themselves symptom stage 0 (baseline/no change)” value in [7] (setting [18]) is listed as “six”. For the same molecule, the “number of the 53 patients giving themselves symptom stage 1 (good/improved)” value in [7] (setting [18]) is reported as “three”. For the same molecule, the “number of the 53 patients giving themselves symptom stage 2 (very good/free of symptoms)” value in data set [7] (setting [18]) worked out at 44. In addition, the “number of different fungal species in mucus after versus before antifungal treatment” value in data set [7] (several patients, fungal organism culturing, amphotericin B irrigation of Example 2) is “remarkably reduced”. Besides, the “susceptibility of fungal organisms in mucus of non-responding patients” value in [8] is given as “resistant”. For the same molecule, the “state of left paranasal sinuses at every post-operative visit” value in data set [9] (left side surgery plus intra- and post-operative irrigation) is “clear of disease”. The “symptoms after treatment of both sides” value in data set [9] (right side surgery and irrigation of both sides for about seven weeks) is listed as “symptom-free”. Further, the “Endoscopy Score A” value in data set [10] (irrigations 1-16 months, 1-2 x day, 0 no evidence of disease, 1 polypoid changes/polyps by endoscopy only, 2 polyps in middle meatus, 3 polyps filling nasal cavity) is 0 (10×) and 3 (5×) and 1 (2×). In addition, in [10] (−2 very bad/much worse, −1 bad/worse, 0 baseline/no change, 1 good/improved, 2 very good/free of symptoms), the “Symptom Score A” value is “+1 (6×) and +2 (6×) and 0 (6×) and −2 and 1”. Also, the “endoscopic score after treatment” value in data set [11] (irrigations twice a day for four months, score 0 before) is 0; in [11] (irrigations twice a day for fourteen months, score 3 before), 0; in [11] (irrigations twice, later four times a day, sixteen months, score 1 before), 0. In addition, the “symptom score after treatment” value in data set [11] (irrigations twice a day for four months) is reported as “+1”; in [11] (irrigations twice a day for fourteen months) it was “+2”; in [11] (irrigations twice, later four times a day, sixteen months), “+2”. The “eosinophil count in mucosal biopsies, all sinuses except the frontal” value in data set [12] (after nine months of irrigations twice a day) is on record as less than 5%. In addition, the “eosinophil count in the frontal sinus biopsy” value in data set [12] (after nine months of irrigations, frontal sinus obstructed, presumably not reached) stood at 10%. The “number of the 28 patients that stopped taking their asthma medication” value in [13] (after starting antifungal treatment) is listed as 26. Further, the “number of the 37 asthmatic patients declaring an improvement or complete elimination of asthma symptoms” value in data set [13] (after three months of antifungal treatment (amphotericin B irrigation of Example 2)) came to 28. In data set [13] (four of the 28 improved patients, all four), the “pulmonary function test before versus after antifungal treatment” value is on record as “improved pulmonary function”. Besides, the “patients of the 23 formerly on systemic steroids that took steroids after starting antifungal treatment” value in data set [13] (human, in vivo) is given as “none”. Besides, in [2] (third patient, amphotericin B irrigations), the “adverse local reaction to nasal irrigations” value is reported as “burning sensation”.
In the case of `CC(=O)N1CCN(c2ccc(OCC3COC(Cn4ccnc4)(c4ccc(Cl)cc4Cl)O3)cc2)CC1` (stereo not drawn) [Ketoconazole, ketoconazole], the values for the MIC in data set [14] and in data set [1] were 0.05 µg/mL (≈ 0.0941 µM) and 3.13 µg/mL (≈ 5.89 µM), respectively.
